In patent US20240139220A1, “TREATMENT OF HPV INFECTION” (priority 2022, published 2024):

Assay: Ex vivo permeation and penetration across porcine vaginal tissue (Franz diffusion cells, IVPT)
Assay type: in vitro ADME
Source text: FIG. 116 is an in vitro tissue permeation test in vaginal tissue comparing Compound II to ABI-1968. […] Bars B and C show the tissue penetration of a 0.1% Compound II gel in […]. […] This may be a contributing factor to the performance of ABI-1968 in clinical studies. […] This is described in Example 41.
Freshly harvested porcine vaginal tissue was procured from local slaughterhouse in an ice box. The vaginal tissue was cut open to expose the mucosal surface and tissue was cleaned by gentle flow of PBS pH 7.4. The porcine vaginal tissue was cut into circular portions (approximately 2 cm^2) with help of a […] punch.
The circular portion of tissue was sandwiched between two chambers of a Franz diffusion cell with an active diffusion area of 1 cm^2, and the mucosal layer was exposed to the donor chambers. The resistance across porcine vaginal tissue was measured using a wave form generator to ensure the integrity of the tissue segment used for the permeation study. Porcine vaginal tissue with resistance of ≥3 KΩ.cm^2 was used for study. The receiver chamber was filled with 8 ml of 5% solutol PBS 7.4 pH, which was stirred at 600 rpm with a 3 mm magnetic stir bar and the temperature was maintained at 37° C. with a circulating water bath.
The ˜200 mg of gel was filled into tared 1 mL syringe and gel was dispensed to donor chamber. The gel was spread on to mucosal surface with pre weighed applicator. After loading and spreading of the gel onto surface of mucosal surface, the weight of 1 mL syringe and applicator was noted to determine the exact amount of gel loaded into donor chamber.
Time course (2 h, 4 h and 8 h) porcine vaginal permeation studies were performed. After loading gel, 500 μL samples were withdrawn from the receiver compartment at different time intervals and each time an equal volume of fresh receiver media was used to replace withdrawn samples. The sample withdrawn at each time interval were stored immediately in −20° C. until analysis. After 2, 4 and 8 h, the formulation was removed from the donor chamber with help of syringe and cleaned with cotton swab. The tissue was removed and washed gently with wash solution (50% methanol in water) 5 times and alternatively cleaning with cotton swab.
An 8 mm punch of active diffusion area of washed porcine vaginal tissue was removed, weighed and transferred into a tube. This tube was immediately placed into dry ice for ˜15 min. After specified time, tissue was removed and placed in precooled dish. The tissue was minced into smaller pieces on a dish with a precooled surgical blade. The minced tissue was transferred to sample tubes and dish was rinsed with 1 ml of 5% solutol in PBS 7.4 pH and transferred to same tissue sample tube. These tubes were stored in −70° C. until analysis.
The samples stored at −20° C. was removed and thawed at room temperature for 30 min. The drug from receptor fluid was centrifuged at 13000 rpm for 5 min and to 200 μL of supernatant equal volume of extraction solvent was added. These samples were centrifuged at 13000 rpm for 5 min and supernatant was transferred into vials for analysis.
The minced tissue samples stored at −70° C. were removed and thawed at room temperature for ˜90 min. The samples were kept for shaking at room temperature for 4 h in BioShaker. After 4 h, samples were centrifuged at 13000 rpm for 5 min. To 100 μL of supernatant, 400 μL of extraction solvent was added and vortexed for 2 min. […]

With `CCCCCCCCCCCCCCCCCCOCCOP(=O)(O)COCCn1cnc2c(=O)[nH]c(N)nc21` [ABI-1968] the “Concentration in vaginal tissue” value (3% dose (FIG. 116)) was < 15 ng/mL, the “Tissue penetration” value (porcine vaginal tissue, FIG. 116, Compound II 0.1% gel, ABI-1968 1% and 3% formulations) was “substantially smaller degree” and the Tissue concentration (up to a 3% dose (Bar F and G in FIG. 116)) was < 15 ng/mg.
